Entries after “also recorded” stand apart in the source; their conditions may differ.
What was measured:
NIH3T3 cells = assay: Myofibroblast differentiation in co-culture, αSMA and collagen I immunofluorescence; format: cell-based, murine; settings: co-culture with TGFβ and activated MCs
Procedure: (§1) Given that both MCs and fibroblasts are present in the TME, the consequences of MC activation on myofibroblasts was explored using a co-culture assay in which murine MC/9 MCs and NIH3T3 myofibroblasts were separated by a transwell chamber with micropores that only allowed chemical communication (FIG. 13A). In this system, degranulation efficiency was determined by measuring the concentration of β-hexosaminidase (β-hex) in the supernatant. MC degranulation was induced through exposure to compound 48/80 (C48/80), which binds to the MRGPRB2 receptor (the orthologue of the human G-protein-coupled receptor MRGPRX2). […] Co-cultures treated with a vehicle control and Triton X-100 were used as internal assay control to evaluate background and maximum β-hex release, respectively. Transforming growth factor (TGF)-β1 was used as a fibroblast activator due to its capacity to induce a myofibroblast phenotype of the NIH3T3 cells. MC/9 cells were cultivated with NIH3T3 cells for 24 hours and then treated with either ketotifen or TGFβ for additional 24 hours in low serum medium, followed by a 30 minute sensitization with C48/80.
To further explore the MC-fibroblast interaction, the differentiation process of NIH3T3 cells in the co-culture system was monitored by assaying levels of αSMA and collagen I, which are two markers of the myofibroblast phenotype, by immunofluorescence staining (FIG. 13C, FIG. 13D, and FIG. 13E).

K7M2wt tumors [1] = assay: Mast cell tryptase staining of tumors; format: in vivo, mouse; settings: 10 mg/kg ketotifen
Excerpt: (§2) Finally, to confirm the effect of ketotifen on MC inactivation, ketotifen-treated tumors were stained for tryptase, a serine protease unique to MCs with a role in myofibroblast proliferation and collagen synthesis.

MCA205 tumors [2] = assay: Mast cell tryptase staining of tumors; format: in vivo, mouse; settings: 10 mg/kg ketotifen
Excerpt: as §2

MCA205 tumors [3] = assay: Flow cytometry of tumor-infiltrating lymphocytes and myeloid cells; format: in vivo, mouse; settings: CD11b / Gr-1 flow cytometry
Procedure: On day 16 of the doxorubicin-anti-PD-L1 combination study (e.g., the study outlined in FIG. 8A), MCA205 tumors were harvested in 1×HBSS (Biosera), minced to fine fragments, and incubated with 1 mg/mL Collagenase D and 0.5 mg/ml DNase I (Roche) in a 37° C. shaker for 30 minutes. Enzymatic digestion was ceased by the addition of RPMI media containing 10% FBS and 1% antibiotic/antimycotic solution. The tissue homogenates were then filtered through 40 μm cell strainers. Red blood cells were removed by ACK Lysing buffer (A1049201, Gibco) and single cell suspensions were collected and used to a final concentration 1×10^6 cells per sample. Cells were then incubated with fixable viability dye (eBioscience, 1:1000) for 10 minutes on ice for gating of viable cells. Non-specific antibody binding was blocked following incubation with the rat anti-mouse CD16/CD32 mAb (BD Bioscience) for 20 minutes on ice. […]
Foxp3-AF488 (BD Bioscience) staining was performed following fixation and permeabilization process using the Foxp3/Transcription Factor Staining Buffer Set (00-5523-00, eBioscience). […] Flow cytometry data were obtained using BD FACSLyric flow cytometer and analyzed using BD FACSuite™ Software. […]

K7M2wt tumors [4] = assay: Ultrasound shear wave elastography of tumor stiffness; format: in vivo, mouse; settings: 10 mg/kg daily ketotifen
Procedure: (§3) The mechanotherapeutic potential of ketotifen in reducing matrix stiffness was primarily assessed non-invasively and longitudinally using ultrasound elastography. Briefly, assessment of tumor elastic modulus was […] via shear wave elastography using a Philips EPIQ Elite Ultrasound scanner with an eL18-4 linear array, approved for clinical scanning was performed as described in previous study. Elastic modulus values of the areas of the region of interest (ROI) with the highest shear wave quality were obtained. The elastic modulus value presented is the average within the tumor region. Shear wave imaging of MCA205 tumors was performed prior to ketotifen treatment on day 7, to determine baseline level of tumor stiffness, after three days of treatment (day 11), and on the last day of treatment just before tumor removal (day 15). Ultrasound imaging of K7M2wt tumors was performed on day 24, 28, and 31. The effect of ketotifen on chemo-immunotherapy combination with regards to MCA205 tissue elasticity was assessed on day 7 before the first cycle of doxorubicin+anti-PD-L1 treatment, one day after second cycle (day 11) and two days after the last cycle (day 15). Ultrasound imaging of K7M2wt tumors was performed on day 22 (i.e., four days post daily ketotifen and before first cycle of combination treatment) and upon completion of treatment (day 32).

MCA205 tumors [5] = assay: as above; format: in vivo, mouse; settings: 10 mg/kg daily ketotifen, dose that reduced stiffness the most
Procedure: as §3

murine MC/9 MCs = assay: MC/9 - NIH3T3 transwell co-culture, mast cell degranulation by β-hexosaminidase release; format: cell-based
Procedure: as §1

CN1CCC(=C2c3ccccc3CC(=O)c3sccc32)CC1 [ketotifen]
myofibroblast differentiation (αSMA and collagen I protein expression) (NIH3T3 cells): impaired this myofibroblast differentiation | tryptase levels (K7M2wt tumors [1]): reduced | tryptase levels (MCA205 tumors [2]): reduced | recruitment of immunosuppressive cell populations (MDSCs) (MCA205 tumors [3]): reducing the recruitment of immunosuppressive cell populations; also recorded: decreasing the polarization of immature myeloid cell population into MDSCs | tissue stiffness (Young's modulus) (K7M2wt tumors [4]): similarly benefited | Young's modulus (tissue stiffness) (MCA205 tumors [5]): 20 kPa | MC degranulation (β-hex release) (murine MC/9 MCs; 24 hours treatment, then 30 minute sensitization with C48/80): inhibits degranulation in a dose-dependent manner | reduction in β-hex release compared to C48/80 treatment (murine MC/9 MCs; ketotifen 100 μg/ml): more than 50%
